In ChEMBL document CHEMBL1156349, “Junceol A, a new sesquiterpenoid from the sea pen Virgularia juncea” (2001):
Converted amounts (≈) assume the structure as drawn.

System: P388
Experiment: Cytotoxicity against mouse P388 cells by MTT assay
Type: functional
Details: read-out: ED50 (the source's name)

Row | SMILES | EC50 [µg/mL]
1 | C=C1CC[C@H](C(C)C)[C@@H]2[C@H]1[C@@H]1CC(=C)[C@@H](O)CC[C@](C)(O)[C@H]2O1 [CLADIELLISIN] | 2 (≈ 6.24 µM)
2 | C=C1CC[C@H](C(C)C)[C@@H]2[C@H]1[C@H]1C[C@](C)(O)[C@@H](O)CC[C@@](C)(O)[C@@H]2O1 [SCLEROPHYTIN A] | 2.3 (≈ 6.79 µM)
3 | CC(=O)OC(C)(C)[C@H]1C=C2[C@@H](C)CC[C@@H](O)[C@]2(C)CC1 [JUNCEOL A] | 5.1 (≈ 18.2 µM)
